Test results as given in patent US20200096496A1, “IODIDE DETECTION IN BLOOD PLASMA SAMPLES” (Faraday Pharmaceuticals, Inc., priority 2017, published 2020).

Test: Iodide concentration in plasma of treated human volunteers by ion chromatography with amperometric detection
Assay type: in vivo
Conditions: plasma samples from human volunteers treated with various dosages of sodium iodide, protein precipitation with acetonitrile
Experimental: Plasma samples were obtained from Bioreclamation IVT in 10 mL aliquots of frozen plasma in lithium heparin. The plasma samples were normal plasma samples obtained from healthy male and female volunteers who were not treated with iodide. The plasma samples were prepared according to the following protocol. • 0.5 mL plasma was diluted 3:1 with pure acetonitrile for protein precipitation before analysis by Amperometric detection. (ex: 0.5 mL […] plus 1.5 mL pure Acetonitrile) • Samples were mixed gently and then centrifuged at max speed (14,000 rpm or 20,817 rcf) for 2 minutes. • Supernatant was carefully removed as to not disturb protein pellet, and transferred to a clean Eppendorf tube. • Supernatants were again centrifuged at max speed for 2 minutes. • Samples were spiked as necessary with NaI to fall between 2.5 and 200 ppb NaI concentrations. • 270 μL or 1 mL volumes of samples were analyzed by Amperometric detection on IC against a standard curve in a diluent matrix.
Plasma samples were obtained from human volunteers treated with various dosages of sodium iodide. The plasma samples were processed and sodium iodide concentrations determined essentially as described in Example 3.

[I-].[Na+] [sodium iodide]
determined serum concentrations of sodium iodide: positively correlated with dosages administered
